Source: PubChem BioAssay AID977613 (Broad Institute, 2014)
The source made the active and inactive calls. The rule behind the calls is not given here.

These molecules were tested on Broad 7084-01 inhibitor HTS, set 2 (assay: single-concentration hits, screen 7084 set 2 (AID 977613);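 note: host cells are infected with parasite promastigotes that become internalized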).
With `O=C(c1cccc(F)c1)N1C[C@@H]2[C@H](c3ccccc31)[C@H](CO)N2C(=O)C1CCOCC1` the active concentration was > 10 µM (inactive). For `C/C=C/c1ccccc1[C@@H]1[C@@H](C#N)N(C(C)=O)[C@@H]1CO`, the active concentration was > 10 µM (inactive). In the case of `COc1ccc2c3c(n(C)c2c1)[C@@H](CO)N(CC1CCCC1)CC31CN(C(=O)Nc2ccccc2)C1`, the active concentration was > 10 µM (inactive). For `N#C[C@H]1[C@H](c2ccccc2-c2cccc(F)c2)[C@@H](CO)N1C(=O)CN1CCOCC1`, the active concentration was > 10 µM (inactive). For `Cc1ccccc1-c1ccccc1[C@@H]1[C@@H](C#N)N(C(=O)c2cccc(F)c2)[C@H]1CO`, the active concentration was > 10 µM (inactive). With `O=C(C[C@H]1CC[C@H]2[C@@H](COC[C@@H](O)CN2Cc2cccc(C(F)(F)F)c2)O1)NCc1ccccc1` the active concentration was > 10 µM (inactive). In the case of `O=C(C1CCOCC1)N1CC(=O)N2[C@@H](CO)[C@H](c3ccc(C#CCc4ccccc4)cc3)[C@@H]2C1`, the active concentration was > 10 µM (inactive). With `COc1ccccc1CN1CC[C@@H]2[C@H](CO)Nc3ccc(C#Cc4ccccc4)cc3[C@@H]21` the active concentration was > 10 µM (inactive). With `CN1C(=O)c2cc(NC(=O)c3cnccn3)ccc2OC[C@@H]2O[C@H](CC(=O)NCC3CCCCC3)CC[C@H]21` the active concentration was > 10 µM (inactive). With `CCN1CC(=O)N2[C@@H](CO)[C@@H](c3ccc(Br)cc3)[C@@H]2C1` the active concentration was > 10 µM (inactive). With `Cc1ccccc1S(=O)(=O)N1CC[C@@H]2[C@@H](CO)Nc3ccc(C#Cc4ccccc4)cc3[C@@H]21` the active concentration was > 10 µM (inactive). `COc1ccc2c3c([nH]c2c1)[C@@H](CO)N(C(=O)C1CCC1)CC31CN(C(=O)c2ccccn2)C1` was tested, and the active concentration was > 10 µM (inactive). With `CC(C)NC(=O)Nc1ccc2c(c1)C(=O)N(C)[C@H]1CC[C@H](CC(=O)NCc3ccc(F)cc3)O[C@H]1CO2` the active concentration was > 10 µM (inactive). For `CN1c2ccc(Br)cc2[C@@H]2[C@@H](CCN2S(=O)(=O)c2cccc(F)c2)[C@@H]1CO`, the active concentration was > 10 µM (inactive). For `O=C(C[C@@H]1CC[C@@H]2[C@H](COC[C@@H](O)CN2C(=O)Cc2ccccc2)O1)NC1CCCC1`, the active concentration was > 10 µM (inactive). In the case of `CC(=O)N1CC2(C1)[C@H](c1ccc(-c3cccc(C#N)c3)cc1)[C@H](CO)N2CCC(F)(F)F`, the active concentration was > 10 µM (inactive). In the case of `COc1ccc2c3c(n(C)c2c1)[C@@H](CO)N(C(=O)Nc1cccc(F)c1)CC31CN(Cc2nccs2)C1`, the active concentration was > 10 µM (inactive). For `O=C(Nc1cccc(F)c1)N1C[C@@H]2[C@H](c3ccccc31)[C@@H](CO)N2C(=O)Cc1ccccn1`, the active concentration was > 10 µM (inactive). For `CCC(=O)N1CC(=O)N2[C@H](CO)[C@H](c3ccc(-c4ccc(C#N)cc4)cc3)[C@@H]2C1`, the active concentration was > 10 µM (inactive). In the case of `C/C=C/c1ccc([C@@H]2[C@H](CO)N(C(=O)CC)C23CN(CCC(F)(F)F)C3)cc1`, the active concentration was > 10 µM (inactive). With `O=C(C[C@@H]1CC[C@@H]2[C@H](COC[C@@H](O)CN2C(=O)C2CC2)O1)NCc1ccncc1` the active concentration was > 10 µM (inactive). In the case of `CCNC(=O)C[C@H]1CC[C@H]2[C@@H](COC[C@@H](O)CN2C(=O)C2CC2)O1`, the active concentration was > 10 µM (inactive). For `O=C(C[C@@H]1CC[C@@H]2[C@H](COC[C@@H](O)CN2C(=O)c2cccnc2)O1)NCc1ccccc1`, the active concentration was > 10 µM (inactive). `O=C1CN(S(=O)(=O)Cc2ccccc2)C[C@@H]2[C@@H](c3ccc(C#Cc4ccccc4)cc3)[C@@H](CO)N12` was tested, and the active concentration was > 10 µM (inactive). For `COc1ccc2c3c([nH]c2c1)[C@H](CO)N(Cc1ccc(F)cc1)CC31CCN(C)CC1`, the active concentration was > 10 µM (inactive). With `CC(C)NC(=O)N1CC2(C1)[C@H](c1ccccc1)[C@H](CO)N2Cc1cncnc1` the active concentration was < 10 µM. With `O=C(C[C@@H]1CC[C@@H]2[C@H](COC[C@H](O)CN2C(=O)Nc2cc(Cl)cc(Cl)c2)O1)NCC1CCCCC1` the active concentration was > 10 µM (inactive). `O=C(c1cccc(F)c1)N1C[C@@H]2[C@H](c3ccccc31)[C@H](CO)N2Cc1cocn1` was tested, and the active concentration was > 10 µM (inactive). In the case of `COc1ccccc1-c1ccc2n(c1=O)C[C@H]1[C@H](CO)[C@@H](C(=O)NCc3ccccc3Cl)N[C@@H]21`, the active concentration was > 10 µM (inactive). With `N#C[C@H]1[C@@H](c2ccccc2-c2ccccc2F)[C@@H](CO)N1C(=O)Cc1ccccc1` the active concentration was > 10 µM (inactive). In the case of `COc1cccc(-c2ccc3c(c2)[C@H]2[C@H](CCN2C(=O)Cc2ccccc2)[C@H](CO)N3)c1`, the active concentration was > 10 µM (inactive). For `C/C=C/c1ccccc1[C@H]1[C@@H](CO)N(C(=O)Nc2cccc(F)c2)[C@H]1C#N`, the active concentration was > 10 µM (inactive). With `O=S(=O)(c1ccccc1)N1CCCCN2[C@H](CO)[C@H](c3ccc(C#CC4CCCC4)cc3)[C@@H]2C1` the active concentration was > 10 µM (inactive). In the case of `CCCNC(=O)N1[C@@H](CO)[C@H](c2ccccc2)C12CN(C(=O)C1CCCCC1)C2`, the active concentration was > 10 µM (inactive). With `COc1cccc(NC(=O)N2C[C@@H](O)COC[C@@H]3O[C@@H](CC(=O)NC4CCC4)CC[C@H]32)c1` the active concentration was > 10 µM (inactive). With `CN1CCN(C(=O)C[C@H]2CC[C@H]3[C@@H](COC[C@@H](O)CN3C(=O)C3CC3)O2)CC1` the active concentration was > 10 µM (inactive). For `O=C(NC1Cc2ccccc2C1)[C@H]1N[C@H]2c3cccc(=O)n3C[C@H]2[C@@H]1CO`, the active concentration was > 10 µM (inactive). With `O=C(C[C@H]1CC[C@@H]2[C@H](COC[C@H](O)CN2Cc2cc(F)cc(F)c2)O1)NC1CCC1` the active concentration was > 10 µM (inactive). In the case of `O=C(c1ccccc1F)N1CC(=O)N2[C@H](CO)[C@@H](c3ccc(C#Cc4ccccc4)cc3)[C@@H]2C1`, the active concentration was > 10 µM (inactive). For `C/C=C/c1ccccc1[C@@H]1[C@@H](CO)N(C(=O)CN2CCOCC2)[C@H]1C#N`, the active concentration was > 10 µM (inactive). For `COC(=O)C[C@@H]1CC[C@@H]2[C@@H](COc3ccc(NC(=O)c4cccc(Cl)c4)cc3C(=O)N2C)O1`, the active concentration was > 10 µM (inactive). In the case of `N#C[C@@H]1[C@H](c2ccccc2C2=CCCCC2)[C@H](CO)N1C(=O)c1cccc(F)c1`, the active concentration was > 10 µM (inactive). For `CCCC#Cc1ccc([C@@H]2[C@H]3CN(S(=O)(=O)c4ccccc4C)CC(=O)N3[C@H]2CO)cc1`, the active concentration was > 10 µM (inactive). With `COc1ccccc1C(=O)N1C[C@H]2[C@@H](c3ccccc31)[C@@H](CO)N2C(=O)Cc1cccnc1` the active concentration was > 10 µM (inactive). With `O=C(Nc1ccc(F)cc1)N1[C@@H]2CNc3ccccc3[C@@H]2[C@@H]1CO` the active concentration was > 10 µM (inactive). In the case of `O=C(Nc1ccc(F)cc1)N1CC(=O)N2[C@H](CO)[C@H](c3ccc(C#Cc4cccnc4)cc3)[C@H]2C1`, the active concentration was > 10 µM (inactive). `CN1C(=O)c2cc(NC(=O)c3cccc(F)c3)ccc2OC[C@@H]2O[C@H](CC(=O)NCC3CCCCC3)CC[C@@H]21` was tested, and the active concentration was > 10 µM (inactive). `CC(C)CC#Cc1ccc([C@@H]2[C@H](CO)N3C(=O)CN(C(=O)c4ccccn4)C[C@@H]23)cc1` was tested, and the active concentration was > 10 µM (inactive). `CC=Cc1ccc2n(c1=O)C[C@H]1[C@H](CO)[C@@H](C(=O)OC)N(CCc3ccccc3)[C@@H]21` (mixture of isomers) was tested, and the active concentration was > 10 µM (inactive). With `O=C(C[C@H]1CC[C@H]2[C@@H](COC[C@H](O)CN2C(=O)Cc2ccccc2)O1)NC1CCCC1` the active concentration was > 10 µM (inactive). `O=C(NCCCN1CCOCC1)[C@@H]1[C@@H](CO)[C@@H]2Cn3c(ccc(C4=CCCCC4)c3=O)[C@H]1N2` was tested, and the active concentration was > 10 µM (inactive). `COCC(=O)N1[C@H](C(=O)Nc2ccccc2)[C@@H](CO)[C@@H]2Cn3c(ccc(-c4cccnc4)c3=O)[C@@H]21` was tested, and the active concentration was > 10 µM (inactive). For `O=C1CNC[C@@H]2[C@@H](c3ccc(C#CC4CCCCC4)cc3)[C@H](CO)N12`, the active concentration was > 10 µM (inactive). `O=C(c1ccncc1)N1C[C@@H]2[C@H](c3ccccc31)[C@H](CO)N2Cc1ccccc1F` was tested, and the active concentration was > 10 µM (inactive). In the case of `Cc1cccc(S(=O)(=O)N2CC[C@@H]3[C@H]2c2cc(C#Cc4ccccc4F)ccc2N[C@@H]3CO)c1`, the active concentration was > 10 µM (inactive). For `COc1ccc(NC(=O)N2CC(=O)N3[C@H](C2)[C@@H](c2ccc(Br)cc2)[C@@H]3CO)cc1`, the active concentration was > 10 µM (inactive). `COc1ccccc1CN1CC[C@@H]2[C@@H](CO)Nc3ccc(C#Cc4ccccc4)cc3[C@@H]21` was tested, and the active concentration was > 10 µM (inactive). In the case of `CCCC#Cc1ccc([C@@H]2[C@@H](CO)N3C(=O)CN(C(=O)CN4CCOCC4)C[C@@H]23)cc1`, the active concentration was > 10 µM (inactive). In the case of `O=C(CC1CC1)N1[C@H](CO)[C@@H](c2ccccc2)C12CN(Cc1cccnc1)C2`, the active concentration was > 10 µM (inactive). `C/C=C/c1ccc([C@H]2[C@@H](CO)N(C(=O)CN(C)C)C23CN(C(=O)C2CCC2)C3)cc1` was tested, and the active concentration was > 10 µM (inactive). With `O=C(C[C@@H]1CC[C@H]2[C@@H](COC[C@@H](O)CN2S(=O)(=O)c2cccc(Cl)c2)O1)Nc1ccc(-c2ccccc2)cc1` the active concentration was > 10 µM (inactive). With `COc1ccc2c3c([nH]c2c1)[C@H](CO)N(CC1CC1)CC31CN(C(=O)c2ccc(F)cc2)C1` the active concentration was > 10 µM (inactive). `CN(C)C(=O)C[C@H]1CC[C@H]2[C@@H](COC[C@H](O)CN2CC2CCCC2)O1` was tested, and the active concentration was > 10 µM (inactive). With `O=S(=O)(c1cccs1)N1CCCCN2[C@H](CO)[C@@H](c3ccc(/C=C/c4ccccc4)cc3)[C@@H]2C1` the active concentration was > 10 µM (inactive). For `COC(=O)[C@@H]1[C@@H](CO)[C@@H]2Cn3c(cccc3=O)[C@@H]2N1CC1CCOCC1`, the active concentration was > 10 µM (inactive). For `O=C(C[C@@H]1CC[C@H]2[C@@H](COC[C@H](O)CN2Cc2cc(F)ccc2F)O1)NCc1ccc(F)cc1`, the active concentration was > 10 µM (inactive). For `C[C@@H](NC(=O)[C@@H]1[C@@H](CO)[C@@H]2Cn3c(ccc(-c4ccncc4)c3=O)[C@@H]2N1C)c1ccccc1`, the active concentration was > 10 µM (inactive). For `CN1c2ccc(Br)cc2[C@H]2[C@H](CCN2C(=O)Cc2ccccc2)[C@H]1CO`, the active concentration was > 10 µM (inactive). `O=C(C[C@H]1CC[C@H]2[C@@H](COC[C@@H](O)CN2C(=O)Nc2ccc(C(F)(F)F)cc2)O1)NCC1CC1` was tested, and the active concentration was > 10 µM (inactive). For `CN(C)C(=O)C[C@H]1CC[C@@H]2[C@H](COC[C@@H](O)CN2C(=O)C2CC2)O1`, the active concentration was > 10 µM (inactive). `COc1ccc(NC(=O)N2CCCCN3[C@H](CO)[C@@H](c4ccc(-c5ccccc5F)cc4)[C@@H]3C2)cc1` was tested, and the active concentration was > 10 µM (inactive).
